From patent US5830910A (priority 1995, dated 1998)
“Also recorded” adds a separate entry of the source.

System: hippocampal region CA3 neurons
Experiment: kainate lesion paradigm, CA3 neurons
Assay type: in vivo, rat (Sprague-Dawley)
Settings: for neurons damaged by kainate: intraventricular
Protocol: A kainate lesion paradigm was employed in adult rats to determine whether cytochalasin D was also excitoprotective. Twenty-four adult male Sprague-Dawley rats (250-300 g) were divided into the indicated experimental groups (4-5 rats/group). Kainate (0.5 µg/[…]) was injected stereotaxically into region CA1 of the right hippocampus of anesthetized rats. Cytochalasin D (the indicated concentration in 1 μl of saline-1% DMSO) or vehicle was infused into the right lateral ventricle during a 5-10 min period immediately following kainate injection. Rats were killed 48 hr later and perfused transcardially with 4% paraformaldehyde. Brain sections (30 μm) were stained with cresyl violet and stained neurons in three adjacent 40X microscope fields of hippocampal region CA3 were counted (5 sections/rat) . The neuronal counts were performed in sections removed approximately 200-400 μm from the injection site. This method results in highly reproducible, 75-99%, neuronal loss in the CA3 region in over 99% of the rats injected with kainate (calculations based on 302 rats receiving intra-hippocampal kainate). […] Approximately 80% of the neurons were killed by kainate in control animals receiving an intracerebroventricular infusion of saline immediately following kainate administration.
Cresyl violet-stained coronal sections from brains of rats administered kainate alone (left) of kainate plus cytochalasin D (CyD; right). […] Lower micrographs are high magnification of a region of CA3 from the sections shown in the upper panels.
FIG. 3. Counts of viable neurons were made in region CA3 of Sham-operated rats, and rats infused intraventricularly with vehicle or increasing concentration of cytochalasin D […] unilateral kainate injection into region CA1 of the hippocampus. Neuronal survival in the kainate injected hippocampus is expressed as a percentage of neurons in the contralateral hippocampus. Values represent the mean and SEM (4 or 5 rats/group). *p<0.01 compared to value for sham rats. **p<0.01 compared to value for vehicle-infused rats. (ANOVA with Scheffe's post-hoc test).

## C=C1[C@@H](C)[C@H]2[C@H](Cc3ccccc3)NC(=O)[C@]23[C@H](OC(C)=O)/C=C/[C@@](C)(O)C(=O)[C@@H](C)C/C=C/[C@H]3[C@@H]1O [Cytochalasin D, cytochalasin D]
0.1 μg
  neurons damaged by kainate: 20%
1.00 μg
  neurons damaged by kainate: 20%
Intraventricular infusion, dose related, 48 hr
  reduction in neuronal injury to CA3 neurons after kainate: highly significant reduction in neuronal injury to CA3 neurons; also recorded: marked reduction in the damage
